Laboratory results reported in patent publication EP0055490A1, “Tetrahydro-1,2,4-oxadiazin-5-one derivatives, processes for their preparation and medicines containing these compounds” (RICHTER GEDEON VEGYÉSZETI GYÁR RT, priority 1980, dated 1982).

How the values were obtained:
[1] = test system: CFLP-Mäusen; test: Maximal electroshock [MES] anticonvulsant test; type: in vivo; conditions: Mus musculus, po; 20 mg/kg peroral, measured 1 hour after dosing, groups of 10 mice; corneal electrode 20 mA, 0,2 s; protection = absence of tonic hindlimb extension; read-out: Hemmwirkung in % in Bezug auf den maximalen Elektroschock
From the text: (§1) Die pharmakologischen Wirkungen der erfindungsgemäßen Tetrahydro-1,2,4-oxadiazin-5-onderivate der allgemeinen Formel I wurden in Tierversuchen nach den üblichen pharmakologischen Verfahrensweisen nachgewiesen, wobei als Vergleichssubstanzen die anerkannt gut wirksamen bekannten Handelsprodukte 5,5-Diphenylhydantoin [Vergleichssubstanz A] und 3-Methyl-5-äthyl-5-phenylhydantoin [Vergleißhssubstanz B] gleicher Wirkungsrichtung verwendet wurden. Die Tierversuche wurden mit CFLP-Mäusen (LATI, Gödöllo, Ungarn) von gemischtem Geschlecht (Körpergewicht: 18 bis 22 g) mit Gruppen von je 10 Tieren durchgeführt. Die zu untersuchenden Verbindungen wurden in einer 5%-igen wäßrigen Lösung von Polyoxyäthylensorbitanmonooleat [Tween 80® suspendiert und diese Suspensionen wurden.auf peroralem Wege mit einer Sonde den Tieren verabreicht. Die Wirkstoffe wurden in den zur Untersuchung der krampfhemmenden beziehungsweise antikonvulsiven Wirkung durchgeführten Versuchen in Dosen von 20 mg/kg Körpergewicht und zur Messung der neurotoxischen Wirkung in Dosen von 80 mg/kg Körpergewicht verabreicht. Die Wirkungen wurden 1 Stunde nach der Verabreichung durch die im folgenden beschriebenen Verfahrensweisen gemessen.
a) Maximaler Elektroschock [MES]
Die Tiere wurden nach der Verfahrensweise von E. A. Swinyard und Mitarbeitern (J. Pharmacol. 106 [1952], 319) mit einer Hornhautelektrode beziehungsweise Corneal--Elektrode (20 mA, 0,2 Sekunde) geschockt. 100% der Blindversuchs- beziehungsweise Kontrolltiere reagierten auf diesen Reiz mit einem tonischen Streckkrampf (extensorischen Krampf) der hinteren Gliedmaßen. Das Unterbleiben dieser Reaktion wurde als unter der Wirkung der Behandlung eingetretener Schutz gewertet.

[2] = Acute toxicity (LD50); conditions: mouse, in vivo, po; single peroral dose, 14 days observation, mice; read-out: Peroraler LD50-Wert (converted)
From the text: as §1
Die Toxizität der zu untersuchenden Verbindungen wurde nach 1-maliger Verabreichung von verschiedenen Dosen durch 14 Tage lange Beobachtung der Tiere ermittelt. Die LD50-Werte (die bei 50% der Tiere tödlichen Dosen) wurden auf Grund des Prozentsatzes der innerhalb 14 Tage verendeten Tiere berechnet.

[3] = test system: CFLP-Mäusen; test: Inhibition of pentamethylenetetrazole (pentetrazole) convulsion; type: in vivo; conditions: Mus musculus, sc; 20 mg/kg peroral, 1 hour after dosing, groups of 10 mice; 125 mg/kg Pentamethylentetrazol subcutaneous; read-out: Hemmwirkung in % in Bezug auf den Pentamethylentetrazolkrampf tonischen Streckkrampf
From the text: as §1
b) Hemmwirkung gegen den Pentamethylentetrazolkrampf [Pentetrazolkrampf]
Es wurden 125 mg Pentamethylentetrazol/kg Körpergewicht nach der Verfahrensweise von Cr. N. Everett und R. K. Richards (J. Pharmacol. Exp: Therap. 81 [1944], 402) den Tieren subkutan verabreicht. 1 Stunde nach der Verabreichung des zu untersuchex den Wirkstoffes wurde die Wirkung beobachtet: Als Schutiwirkung wurde das Unterbleiben des klonischen Krampfes beriehungsweise des tonischen Streckkrampfes der hinteren GliedmaBen bewertet.

Question: For `CC(=O)N1OCC(=O)NC1c1cccc2ccccc12` (stereo not drawn) [Beispiel 15], which responders at 20 mg/kg [1] is on record?
Answer: The responders at 20 mg/kg was 40%.

Question: And the LD50 at 336 h [2]?
Answer: The LD50 at 336 h was 800 mg/kg.

Question: Which responders at 20 mg/kg [1] does the source give for `CC(=O)N1OC(C)C(=O)NC1c1ccccc1` (racemic) [Beispiel 61, 2-Acetyl-3-phenyl-6-methyltetrahydro-1,2,4-oxadiazin-5-on] here?
Answer: The responders at 20 mg/kg was 20%.

Question: And the responders at 20 mg/kg [3]?
Answer: The responders at 20 mg/kg was 50%.

Question: What about the LD50 at 336 h [2] of the same compound?
Answer: The LD50 at 336 h was 1000 mg/kg.

Question: Which responders at 20 mg/kg [1] does the source give for `O=C1CONC(c2ccc(O)cc2)N1` (stereo not drawn) [Beispiel 63] here?
Answer: Its responders at 20 mg/kg is 40%.

Question: What about the responders at 20 mg/kg [3] of the same compound?
Answer: Its responders at 20 mg/kg is 20%.

Question: And the LD50 at 336 h [2]?
Answer: The LD50 at 336 h was 800 mg/kg.

Question: Which responders at 20 mg/kg [3] does the source give for `CCOC(=O)N1OCC(=O)NC1c1ccccc1` (stereo not drawn) [Beispiel 89] here?
Answer: Its responders at 20 mg/kg is 20%.

Question: What about the LD50 at 336 h [2] of the same compound?
Answer: The LD50 at 336 h was 1000 mg/kg.

Question: With `CC(=O)N1OCC(=O)NC1c1cccs1` (stereo not drawn) [Beispiel 16] as the compound, how does the responders at 20 mg/kg [1] read?
Answer: The responders at 20 mg/kg was 20%.

Question: And the responders at 20 mg/kg [3]?
Answer: The responders at 20 mg/kg was 40%.

Question: And the LD50 at 336 h [2]?
Answer: Its LD50 at 336 h is 800 mg/kg.

Question: With `CC(=O)N1OCC(=O)NC1c1ccc(Br)cc1` (stereo not drawn) [Beispiel 14] as the compound, how does the responders at 20 mg/kg [1] read?
Answer: Its responders at 20 mg/kg is 40%.

Question: And the LD50 at 336 h [2]?
Answer: Its LD50 at 336 h is 800 mg/kg.

Question: What does the source list for `CC(=O)N1OC(Cc2ccccc2)C(=O)NC1c1ccccc1` (racemic) [Beispiel 60]?
Answer: responders at 20 mg/kg [3]: 20%; LD50 at 336 h [2]: 1000 mg/kg

Question: For `CC(=O)N1OCC(=O)N(C(C)=O)C1c1ccccc1` (stereo not drawn) [Beispiel 8, 2,4-Diacetyl-3-phenyltetrahydro-1,2,4-oxadiazin-5-on], which responders at 20 mg/kg [1] is on record?
Answer: Its responders at 20 mg/kg is 60%.

Question: What about the responders at 20 mg/kg [3] of the same compound?
Answer: The responders at 20 mg/kg was 40%.

Question: And the LD50 at 336 h [2]?
Answer: The LD50 at 336 h was 1000 mg/kg.

Question: Which results are given for `CC(=O)N1OCC(=O)NC1c1ccc(C(=O)O)cc1` (stereo not drawn) [Beispiel 84]?
Answer: responders at 20 mg/kg [1]: 40%; LD50 at 336 h [2]: 1000 mg/kg

Question: For `CC(=O)N1OCC(=O)NC12CCCCC2` [Beispiel 83], which responders at 20 mg/kg [1] is on record?
Answer: Its responders at 20 mg/kg is 40%.

Question: What about the LD50 at 336 h [2] of the same compound?
Answer: Its LD50 at 336 h is 1000 mg/kg.

Question: With `CC(=O)N1OCC(=O)NC1c1ccc(F)cc1` (stereo not drawn) [Beispiel 13, 2-Acetyl-3-(4'-fluorphenyl)-tetrahydro-1,2,4-oxadiazin-5-on] as the compound, how does the responders at 20 mg/kg [1] read?
Answer: Its responders at 20 mg/kg is 40%.

Question: And the responders at 20 mg/kg [3]?
Answer: The responders at 20 mg/kg was 40%.

Question: What about the LD50 at 336 h [2] of the same compound?
Answer: Its LD50 at 336 h is 800 mg/kg.

Question: Which results are given for `CCC1(c2ccccc2)NC(=O)N(C)C1=O` (stereo not drawn) [Vergleichssubstanz B, 3-Methyl-5-äthyl-5-phenylhydantoin, reference compound]?
Answer: responders at 20 mg/kg [1]: 10%; responders at 20 mg/kg [3]: 50%; LD50 at 336 h [2]: 476 mg/kg

Question: With `CC(=O)N1OCC(=O)NC1c1ccccc1` (stereo not drawn) [Beispiel 2, 2-Acetyl-3-phenyltetrahydro-1,2,4-oxadiazin-5-on] as the compound, how does the responders at 20 mg/kg [1] read?
Answer: The responders at 20 mg/kg was 70%.

Question: What about the responders at 20 mg/kg [3] of the same compound?
Answer: Its responders at 20 mg/kg is 90%.

Question: What about the LD50 at 336 h [2] of the same compound?
Answer: The LD50 at 336 h was 1190 mg/kg.

Question: For `O=C1NC(=O)C(c2ccccc2)(c2ccccc2)N1` [Vergleichssubstanz A, 5,5-Diphenylhydantoin, reference compound], which responders at 20 mg/kg [1] is on record?
Answer: The responders at 20 mg/kg was 90%.

Question: What about the responders at 20 mg/kg [3] of the same compound?
Answer: The responders at 20 mg/kg was 80%.

Question: And the LD50 at 336 h [2]?
Answer: Its LD50 at 336 h is 279 mg/kg.
